Legend:
Type in all cases: cell-based
PC3 cells [1] = test: Cell proliferation by MTS assay, MLN8237 with LIMK1 shRNA or control shRNA
Experimental: 10 cm dishes were transiently transfected with 6 ug of LIMK1 shRNA or control shRNA. 24 hrs post transfection, untransfected PC3 cells along with the transfected PC3 cells were seeded in 96 well plates in triplicate (5,000 cells/well). 14 hrs after seeding, media was changed to MLN8237 containing media, at concentrations of 0.001 uM, 0.01 uM, and 0.1 uM. After 24 and 48 hours of inhibitor treatment, cell proliferation was measured using MTS assay. MTS reagent was added to each well and allowed to incubate for 3 hrs at 37° C. before reading absorbances. Absorbances were compared against controls.

PC3 cells [2] = test: Immunofluorescence of spindle structure after LIMK1 shRNA transfection, spindle abnormalities counted
Excerpt: FIG. 7 A: PC3 cells were transfected with either LIMK1 or control shRNA. In control shRNA transfected cells, distinct localization of pAurKA (green) at the spindle poles (red) could be noted. […] PC3 cells were transfected with either LIMK1 or control shRNA and spindle abnormalities were quantified by counting 50 cells per treatment.

PC3 cells [3] = test: Western blot of LIMK1 and pAurKA after LIMK1 shRNA transfection; conditions: LIMK1 shRNA versus control shRNA
Experimental: FIG. 6 PC3 cells were transfected with LIMK1 shRNA or control shRNA and the levels of LIMK1 and pAurKA were detected by western blotting using anti-LIMK1 or anti phospho-AurKA antibodies. GAPDH was used as the loading control. The ratio of pAurKA to GAPDH levels was determined by densitometry (left panel).

PC3 cells [4] = test: Western blot analysis of nuclear extracts for phospho-Histone H3; conditions: MLN8237 0.01 uM, nuclear extracts from PC3 cells
Experimental: (§1) FIG. 8. […] Western blot analysis of nuclear extracts from PC3 cells treated with MLN8237 (0.01 uM). Y-tubulin staining was used as the loading control. […] PC3 and RWPE1 cells were treated with MLN8237 (0.01 uM) MLN8237 for 24, 48, and 72 hr and cell viability was measured by MTT Assay.

PC3 and RWPE1 cells [5] = test: Immunofluorescence analysis of cells treated with MLN8237; conditions: MLN8237 0.01 uM, 24 hr
PC3 and RWPE1 cells [6] = test: Cell viability by MTT assay; conditions: MLN8237 0.01 uM, 24, 48 and 72 hr
Experimental: as §1

Compound | number of viable cells compared to control shRNA (PC3 cells [1]; 0.001 uM MLN8237, 48 hrs, PC3 cells) [%] | number of viable cells compared to control shRNA (PC3 cells [1]; 0.1 uM MLN8237, 48 hrs, PC3 cells) [%] | sensitivity to MLN8237 versus control shRNA transfected cells (PC3 cells [1]; PC3 cells, MLN8237 0.001-0.1 uM) | sensitivity to AurKA inhibitor versus untransfected PC3 cells treated only with AurKA inhibitor (PC3 cells [1]; normalised to untransfected PC3 cells treated with vehicle (DMSO), 24 and 48 hr) | number of abnormal spindles (PC3 cells [2]; 50 cells counted per treatment) | spindle structure (alpha-tubulin staining) (PC3 cells [2]; LIMK1 shRNA versus control shRNA) | level of phosphorylated AurKA (PC3 cells [3]) | sensitivity of untransfected PC3 cells to MLN8237 (MTS) (PC3 cells [1]; 0.001, 0.01 and 0.1 uM, 24 and 48 hr) | levels of phospho-Histone H3 (mitotic arrest) (PC3 cells [4]) | localization of pAurKA and spindle morphology (alpha-tubulin) (PC3 and RWPE1 cells [5]) | localization of pLIMK1 and centrin (PC3 and RWPE1 cells [5]) | cell survival (cell viability, MTT) (PC3 and RWPE1 cells [6])
AAGGACAAGAGGCTCAACTTCATCACTGA (listed as DNA, chemistry not given here) [LIMK1 shRNA, interfering RNA (shRNA) targeting LIMK1] | 75 | 83 | more sensitivity to MLN8237 | increased the sensitivity of the cells to AurKA inhibitor at all concentrations | increased the number of abnormal spindles | disorganized spindle structure | decreased the level of phosphorylated AurkA | – | – | – | – | –
COc1cc(Nc2ncc3c(n2)-c2ccc(Cl)cc2C(c2c(F)cccc2OC)=NC3)ccc1C(=O)O [MLN8237] | – | – | – | – | – | – | – | most sensitive to 0.1 uM MLN8237 at 48 hrs | Increased the Levels of phospho-Histone H3 | mislocalization of pAurKA (green) and improper spindle morphology | diffused staining and mislocalization of pLIMK1 (green) and centrin (red) in the nucleus | Decreased Cell Survival
